According to patent US5278148A (Hoffmann-La Roche Inc., priority 1989, dated 1994):

target: T1, human renin (Homo sapiens, UniProt P00797); test: In vitro test with pure human renin; format: biochemical; settings: human tetradecapeptide renin substrate (hTD), pH 7.4, incubated three hours at 37° C. or 4° C., angiotensin I via RIA
T1 sequence (P00797 67-406): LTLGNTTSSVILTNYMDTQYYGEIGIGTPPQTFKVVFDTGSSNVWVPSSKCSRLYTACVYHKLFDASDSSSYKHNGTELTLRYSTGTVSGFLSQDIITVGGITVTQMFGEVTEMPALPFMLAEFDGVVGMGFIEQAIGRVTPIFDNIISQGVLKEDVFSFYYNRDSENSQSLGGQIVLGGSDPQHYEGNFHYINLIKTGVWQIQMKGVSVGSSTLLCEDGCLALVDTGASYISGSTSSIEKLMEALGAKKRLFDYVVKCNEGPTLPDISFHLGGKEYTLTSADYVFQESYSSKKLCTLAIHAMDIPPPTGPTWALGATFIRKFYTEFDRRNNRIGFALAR
Experimental: In Vitro Test with Pure Human Renin
The test is carried out in Eppendorf test tubes. The incubation mixture consists of (1) 100 μl of human renin in buffer A (0.1M sodium phosphate solution, pH 7.4, 0.1% bovine serum albumin, 0.1% sodium azide and 1 mM ethylenediaminetetraacetic acid), sufficient for a renin activity of 2-3 ng of angiotensin I/ml/hr.; (2) 145 μl of buffer A; (3) 30 μl of 10 μm human tetradecapeptide renin substrate (hTD) in 10 mM hydrochloric acid; (4) 15 μl of dimethyl sulfoxide with or without inhibitor and (5) 10 μl of a 0.03 molar solution of hydroxy- quinoline sulfate in water.
The samples are incubated for three hours at 37° C. or 4° C. in triplicate. 2×100 μl samples per experimental test tube are used in order to measure the production of angiotensin I via RIA (standard radioimmunoassay; clinincal assay solid phase kit). Cross reactivities of the antibody used in the RIA are: angiotensin I 100%; angiotensin II 0.0013%; hTD (angiotensin I-Val-Ile-His-Ser-OH) 0.09%. The production of angiotensin I is determined by the difference between the experiment at 37° C. and that at 4° C.
The following controls are carried out:
(a) Incubation of hTD samples without renin and without inhibitor at 37° C. and 4° C. The difference between these two values gives the base value of angiotensin I production.
(b) Incubation of hTD samples with renin, but without inhibitor at 37° C. and 4° C. The difference between these values gives the maximal value of angiotensin I production.
In each sample the base value of angiotensin I production is substracted from the angiotensin I production which is determined. The difference between the maximal value and the base value gives the value of the maximal substrate hydrolysis (=100%) by renin.
The results are given as IC50 values which denote that concentration of the inhibitor at which the enzymatic activity is inhibited by 50%. The IC50 values are determined from a linear regression curve from a logit-log plot.

Compound	IC50 [nM]
CC(C)(C)C(=O)C[C@@H](Cc1ccccc1)C(=O)N[C@@H](Cc1c[nH]cn1)C(=O)N[C@@H](CC1CCCCC1)[C@@H](O)CN1CCCCC1=O [A, (S)-N-[(1S,2S)-1-(Cyclohexylmethyl)-2-hydroxy-3-(2oxopiperidino)propyl]-α-[(R)-α-(3,3-dimethyl-2-oxobutyl)hydrocinnamamido]imidazole-4-propionamide]	41
CN(C[C@H](O)[C@H](CC1CCCCC1)NC(=O)[C@H](Cc1c[nH]cn1)NC(=O)[C@H](Cc1ccccc1)NC(=O)OC(C)(C)C)C(=O)[C@H](Cc1c[nH]cn1)NC(=O)[C@H](Cc1ccccc1)NC(=O)OC(C)(C)C [E]	30
CN(C[C@H](O)[C@H](CC1CCCCC1)NC(=O)[C@H](Cc1c[nH]cn1)NC(=O)[C@@H](CC(=O)C(C)(C)C)Cc1ccccc1)C(=O)[C@H](Cc1c[nH]cn1)NC(=O)CCc1ccccc1 [D, (S)-N-[(1S,2S)-1-(Cyclohexylmethyl)-2-hydroxy-3-[(S)-3-(imidazol-4-yl)-2-hydrocinnamamido-N-methylpropionamido]propyl]-α-[(R)-α-(3,3-dimethyl-2-oxobutyl)hydrocinnamamido]imidazole-4-propionamide]	19
CC(C)(C)C(=O)C[C@@H](Cc1ccccc1)C(=O)N[C@@H](Cc1c[nH]cn1)C(=O)N[C@@H](CC1CCCCC1)[C@@H](O)CN1C(=O)c2ccccc2C1=O [G, (S)-N-[(1S,2S)-1-(Cyclohexylmethyl)-2-hydroxy-3-phthalimidopropyl]-α-[(R)-α-(3,3-dimethyl-2-oxobutyl)hydrocinnamamido]imidazole-4-propionamide]	20
CN(C[C@H](O)[C@H](CC1CCCCC1)NC(=O)[C@H](Cc1c[nH]cn1)NC(=O)[C@H](Cc1ccccc1)NC(=O)OC(C)(C)C)C(=O)[C@H](Cc1ccccc1)NC(=O)OC(C)(C)C [F, t-Butyl [(S)-α-[[(2S,3S)-3-[(S)-2-[(S)-α-(1-t-butoxyformamido)hydrocinnamamido]-3-imidazol-4-ylpropionamido]-4-cyclohexyl-2-hydroxybutyl]methylcarbamoyl]phenethyl]carbamate]	15
(S)-N-[(1S,2S)-1-(Cyclohexylmethyl)-3-[(S)-α-[(R)-α-(3,3-dimethyl-2-oxobutyl)hydrocinnamamido]-N-isopropylimidazol-4-propionamido]-2-hydroxypropyl]-α-[(R)-α-(3,3-dimethyl-2-oxobutyl)hydrocinnamamido]imidazole-4-propionamide	41
CN(C[C@H](O)[C@H](CC1CCCCC1)NC(=O)[C@H](Cc1c[nH]cn1)NC(=O)[C@@H](CC(=O)C(C)(C)C)Cc1ccccc1)C(=O)[C@H](Cc1c[nH]cn1)NC(=O)[C@@H](CC(=O)C(C)(C)C)Cc1ccccc1 [C]	28
